From PubChem BioAssay (NCI)
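Assay format: 96-well plates, 48-hour exposure. The concentration for 50% growth inhibition is given as GI50. Definition used: TGI = concentration required for complete inhibition of growth.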

Key:
Assay in all cases: NCI anticancer screen, dose series, 48 h
[1] = test system: KM12 colon
[2] = test system: NCI-H226 lung
[3] = test system: OVCAR-5 ovarian
[4] = test system: SW-620 colon
[5] = test system: SF-539 CNS
[6] = test system: RXF 393 renal
[7] = test system: LOX IMVI melanoma
[8] = test system: SF-295 CNS
[9] = test system: NCI-H460 lung
[10] = test system: SK-OV-3 ovarian
[11] = test system: NCI-H23 lung
[12] = test system: A498 renal
[13] = test system: MCF7 breast
[14] = test system: HCT-116 colon
[15] = test system: SK-MEL-5 melanoma
[16] = test system: A549 NSCLC
[17] = test system: OVCAR-3 ovarian
[18] = test system: CAKI-1 renal
[19] = test system: HOP-92 NSCLC
[20] = test system: SR leukemia
[21] = test system: MALME-3M melanoma
[22] = test system: HCC-2998 colon
[23] = test system: IGROV1 ovarian
[24] = test system: T-47D breast
[25] = test system: K-562 leukemia
[26] = test system: HL-60(TB) leukemia
[27] = test system: OVCAR-4 ovarian
[28] = test system: HCT-15 colon
[29] = test system: NCI-H522 lung
[30] = test system: OVCAR-8 ovarian
[31] = test system: 786-0 renal
[32] = test system: SF-268 CNS
[33] = test system: U251 CNS
[34] = test system: BT-549 breast
[35] = test system: SNB-19 CNS
[36] = test system: ACHN renal
[37] = test system: TK-10 renal
[38] = test system: SNB-75 CNS
[39] = test system: EKVX NSCLC
[40] = test system: UACC-257 melanoma
[41] = test system: PC-3 prostate
[42] = test system: COLO 205 colon
[43] = test system: UO-31 renal
[44] = test system: MOLT-4 leukemia
[45] = test system: MDA-MB-231 breast
[46] = test system: CCRF-CEM leukemia
[47] = test system: SN12C renal
[48] = test system: HT29 colon
[49] = test system: RPMI-8226 leukemia
[50] = test system: MDA-MB-435
[51] = test system: MDA-MB-468 breast
[52] = test system: DU-145 prostate
[53] = test system: M14 melanoma
[54] = test system: UACC-62 melanoma
[55] = test system: HOP-62 NSCLC
[56] = test system: SK-MEL-28 melanoma
[57] = test system: HS 578T breast

Cc1ccc(NC(=O)[C@]23CCC(C)(C)CC2C2=CCC4[C@@]5(C)C[C@@H](O)[C@H](O)[C@@](C)(CO)C5CC[C@@]4(C)[C@]2(C)CC3)cc1 (some centres undefined)
GI50 [1]: 12.8 µM
TGI [1]: 28.2 µM
GI50 [2]: 11 µM
TGI [2]: 23.8 µM
GI50 [3]: 12.8 µM
TGI [3]: 25.7 µM
GI50 [4]: 12.5 µM
TGI [4]: 27.5 µM
GI50 [5]: 12.7 µM
TGI [5]: 25.6 µM
GI50 [6]: 2.9 µM
TGI [6]: 11.6 µM
GI50 [7]: 5.27 µM
TGI [7]: 19.1 µM
GI50 [8]: 8.28 µM
TGI [8]: 21.4 µM
GI50 [9]: 10.5 µM
TGI [9]: 23.1 µM
GI50 [10]: 13.9 µM
TGI [10]: 34 µM
GI50 [11]: 12.7 µM
TGI [11]: 26.8 µM
GI50 [12]: 14.1 µM
TGI [12]: 27.4 µM
GI50 [13]: 4.12 µM
TGI [13]: 15.5 µM
GI50 [14]: 7.24 µM
TGI [14]: 20 µM
GI50 [15]: 6.45 µM
TGI [15]: 19.3 µM
GI50 [16]: 12.9 µM
TGI [16]: > 100 µM
GI50 [17]: 13.5 µM
TGI [17]: 27.3 µM
GI50 [18]: 5.1 µM
TGI [18]: 20.4 µM
GI50 [19]: 8.43 µM
TGI [19]: 23.1 µM
GI50 [20]: 5.58 µM
TGI [20]: > 100 µM
GI50 [21]: 12.1 µM
TGI [21]: 25.1 µM
GI50 [22]: 6.91 µM
TGI [22]: 21 µM
GI50 [23]: 11.1 µM
TGI [23]: 23.8 µM
GI50 [24]: 6.94 µM
TGI [24]: 20.6 µM
GI50 [25]: 12.1 µM
TGI [25]: 87.6 µM
GI50 [26]: 5.44 µM
TGI [26]: 36.5 µM
GI50 [27]: 7.81 µM
TGI [27]: 23.3 µM
GI50 [28]: 6.9 µM
TGI [28]: 19.9 µM
GI50 [29]: 12.9 µM
TGI [29]: 26.6 µM
GI50 [30]: 14.2 µM
TGI [30]: 35.5 µM
GI50 [31]: 12.8 µM
TGI [31]: 26.4 µM
GI50 [32]: 10.2 µM
TGI [32]: 32.2 µM
GI50 [33]: 12.8 µM
TGI [33]: 25.5 µM
GI50 [34]: 12.4 µM
TGI [34]: 25.4 µM
GI50 [35]: 16.5 µM
TGI [35]: 43.4 µM
GI50 [36]: 10.4 µM
TGI [36]: 22.1 µM
GI50 [37]: 16.3 µM
TGI [37]: 32 µM
GI50 [38]: 1.88 µM
TGI [38]: 31.4 µM
GI50 [39]: 9.25 µM
TGI [39]: 23.9 µM
GI50 [40]: 12.9 µM
TGI [40]: 27.5 µM
GI50 [41]: 5.46 µM
TGI [41]: 21.5 µM
GI50 [42]: 12.1 µM
TGI [42]: 27.5 µM
GI50 [43]: 3.54 µM
TGI [43]: 17 µM
GI50 [44]: 6.88 µM
TGI [44]: 50.7 µM
GI50 [45]: 12.2 µM
TGI [45]: 26.1 µM
GI50 [46]: 11.1 µM
TGI [46]: 38.9 µM
GI50 [47]: 10.9 µM
TGI [47]: 23.1 µM
GI50 [48]: 7.44 µM
TGI [48]: 20.1 µM
GI50 [49]: 4.79 µM
TGI [49]: 25.8 µM
GI50 [50]: 11.5 µM
TGI [50]: 23.7 µM
GI50 [51]: 4.52 µM
TGI [51]: 18.1 µM
GI50 [52]: 15.2 µM
TGI [52]: 32.6 µM
GI50 [53]: 12.4 µM
TGI [53]: 25.2 µM
GI50 [54]: 6.8 µM
TGI [54]: 20.6 µM
GI50 [55]: 14.3 µM
TGI [55]: 29.1 µM
GI50 [56]: 13 µM
TGI [56]: 26 µM
GI50 [57]: 12.4 µM
TGI [57]: 48.6 µM
